In the NIST ThermoML archive (doi:10.1016/j.jct.2012.02.028):

Settings: 101.33 kPa, Crystal, Vacuum adiabatic calorimetry

O=C([O-])[O-].[Zn+2] [zinc(II) carbonate]
Settings | molar entropy [J/K/mol]
5 K | 0.00258
10 K | 0.02006
15 K | 0.07123
20 K | 0.1881
25 K | 0.41
30 K | 0.7694
35 K | 1.284
40 K | 1.959
45 K | 2.788
50 K | 3.759
55 K | 4.862
60 K | 6.081
65 K | 7.403
70 K | 8.815
75 K | 10.3
80 K | 11.85
85 K | 13.45
90 K | 15.1
95 K | 16.78
100 K | 18.49
105 K | 20.21
110 K | 21.95
115 K | 23.7
120 K | 25.45
130 K | 28.95
140 K | 32.44
150 K | 35.9
160 K | 39.32
170 K | 42.69
180 K | 46.02
190 K | 49.28
200 K | 52.5
210 K | 55.65
220 K | 58.75
230 K | 61.8
240 K | 64.79
250 K | 67.73
260 K | 70.62
270 K | 73.48
273.15 K | 74.37
280 K | 76.29
290 K | 79.06
298.15 K | 81.28
300 K | 81.78
310 K | 84.45
320 K | 87.09
